Measurements: patent US20240391862A1, “(1,4,5-TRISUBSTITUTED-1H-PYRAZOL-3-YL)OXY-2-ALKOXY ALKYL ACIDS AND THEIR DERIVATIVES, THEIR SALTS AND THEIR USE AS HERBICIDAL AGENTS” (Bayer AKtiengesellschaft, priority 2021, published 2024)

Key:
various unwanted plants = assay: Post-emergence effect against various unwanted plants (PO): comparative test of I-01 with compounds from WO2020/245044 (Tables 41a, 41b) and summary statements; format: in vivo; conditions: for Post-emergence effect, Effect %, ALOMY / Post-emergence effect, Effect %, AVEFA / Post-emergence effect, Effect %, ECHCG / Post-emergence effect, Effect %, LOLRI / Post-emergence effect, Effect %, SETVI: comparative test
Procedure: Seeds of monocotyledonous and dicotyledonous weeds and crop plants are placed in sandy loam in plastic or organic planting pots, covered with soil and cultivated in a greenhouse under controlled growth conditions. 2 to 3 weeks after sowing, the trial plants are treated at the one-leaf stage. The compounds of the invention, formulated in the form of wettable powders (WP) or as emulsion concentrates (EC), are then sprayed onto the green parts of the plants as aqueous suspension or emulsion with addition of 0.5% additive at a water application rate of 600 l/ha (converted). After the test plants have been kept in the greenhouse under optimum growth conditions for about 3 weeks, the activity of the preparations is rated visually in comparison to untreated controls. For example, 100% activity=the plants have died, 0% activity=like control plants. […] Tables 41a and 41b below show the effects of the inventive compound (I-01) with structurally similar compounds (WO2020/245044) on various harmful plants at an application rate corresponding to 320 g/ha or less, which have been obtained by the trial procedure specified hereinafter. The inventive compound (I-01) differs here by variance of a significant structural feature from the structurally similar compound with regard to the R^2 radical. Seeds of monocotyledonous and dicotyledonous weeds and crop plants are placed in sandy loam in plastic or organic planting pots, covered with soil and cultivated in a greenhouse under controlled growth conditions. 2 to 3 weeks after sowing, the trial plants are treated at the one-leaf stage. The compounds of the invention, formulated in the form of wettable powders (WP) or as emulsion concentrates (EC), are then sprayed onto the green parts of the plants as aqueous suspension or emulsion with addition of 0.5% additive at a water application rate of 600 l/ha (converted). After the test plants have been kept in the greenhouse under optimum growth conditions for about 3 weeks, the activity of the preparations is rated visually in comparison to untreated controls. For example, 100% activity=the plants have died, 0% activity=like control plants. Effects/crop compatibilities of selected compounds (see Table 39) on various harmful plants at an application rate corresponding to 80 to 320 g/ha that have been obtained by the trial procedure specified hereinafter are shown in Tables 41a and 41b below.

DIGSA = assay: Pre-emergence herbicidal effect, greenhouse pot test; format: in vivo, Digitaria sanguinalis; conditions: 320 g/ha, scored visually after about 3 weeks vs untreated controls
Excerpt: Seeds of monocotyledonous and dicotyledonous weed plants and crop plants are placed in plastic or organic planting pots and covered with soil. The compounds of the invention, formulated in the form of wettable powders (WP) or as emulsion concentrates (EC), are then applied to the surface of the covering soil as aqueous suspension or emulsion with addition of 0.5% additive at a water application rate equivalent to 600 l/ha. After the treatment, the pots are placed in a greenhouse and kept under good growth conditions for the trial plants. After about 3 weeks, the effect of the preparations is scored visually in comparison with untreated controls as percentages. For example, 100% activity=the plants have died, 0% activity=like control plants.
Tables 1a to 19c below show the effects/crop compatibilities of selected compounds of the general formula (I) on various harmful plants at an application rate corresponding to 20 to 320 g/ha, which were obtained by the trial procedure specified above.
• ALOMY: Alopecurus myosuroides SETVI: Setaria viridis • AVEFA: Avena fatua POLCO: Fallopia convolvulus • AMARE: Amaranthus retroflexus ECHCG: Echinochloa crus-galli • LOLRJ: Lolium rigidum STEME: Stellaria media • VERPE: Veronica persica MATIN: Tripleurospermum inodorum • DIGSA: Digitaria sanguinalis ABUTH: Abutylon threophrasti • TRZAS: Triticum aestivum VIOTR: Viola tricolor • BRSNW: Brassica napus ZEAMX: Zea mays • PHBPU: Ipomoea purpurea GLXMA: Glycine max • ORYSA: Oryza sativa HORMU: Hordeum murinum

Compound: CCOC(=O)C(OCC)Oc1nn(-c2ccccc2F)c(-c2ccc(F)nc2)c1Br (racemic) [Example I-01, Ethyl (2RS)-{[4-bromo-1-(2-fluorophenyl)-5-(6-fluoropyridin-3-yl)-1H-pyrazol-3-yl]oxy}(ethoxy)acetate]
- Post-emergence effect, Effect %, ALOMY (various unwanted plants; 80 g/ha): 90%
- Post-emergence effect, Effect %, ALOMY (various unwanted plants; 320 g/ha): 100%
- Post-emergence effect, Effect %, AVEFA (various unwanted plants; 80 g/ha): 90%
- Post-emergence effect, Effect %, AVEFA (various unwanted plants; 320 g/ha): 90%
- Post-emergence effect, Effect %, ECHCG (various unwanted plants; 80 g/ha): 90%
- Post-emergence effect, Effect %, ECHCG (various unwanted plants; 320 g/ha): 90%
- Post-emergence effect, Effect %, LOLRI (various unwanted plants; 80 g/ha): 70%
- Post-emergence effect, Effect %, LOLRI (various unwanted plants; 320 g/ha): 90%
- Post-emergence effect, Effect %, SETVI (various unwanted plants; 80 g/ha): 90%
- Post-emergence effect, Effect %, SETVI (various unwanted plants; 320 g/ha): 90%
- herbicidal efficacy by comparison to the structurally similar compounds (Tables 41a and 41b) (various unwanted plants; different harmful plants, 320 g or less per hectare, vs compounds from WO2020/245044): distinctly improved herbicidal efficacy

Compound: COC(=O)C(OC)Oc1nn(-c2ncccc2F)c(-c2ccc(F)nc2)c1Br (stereo not drawn) [Example I-05]
- Pre-emergence effect at 320 g/ha against DIGSA in % (DIGSA): 90%
